Measured values: US10105357B2, “Indication of antibiotic drugs for preparation of cancer inhibition pharmaceutical composition” (LAUNX BIOMEDICAL CO., LTD., priority 2014, dated 2018)

Tests used:
cancer cell lines = test: Cell viability analysis (WST-1) on cancer cell lines; type: cell-based, human; conditions: drug 10 μM, 72 hours, WST-1; Table 3
BxPC-3 = test: Cell viability analysis, pancreatic cancer BxPC-3; type: cell-based, human
[1] = test system: C-33A (Cervical carcinoma); test: Cell viability analysis, cervical cancer C-33A; type: cell-based, human
[2] = test system: AGS (Gastric Adenocarcinoma); test: Cell viability analysis, gastric cancer AGS; type: cell-based, human
NIH: OVCAR-3 = test: Cell viability analysis, ovarian cancer NIH: OVCAR-3; type: cell-based, human
[3] = test system: HI650 (Lung Adenocarcinoma); test: Cell viability analysis, lung cancer HI650; type: cell-based, human
[4] = test system: 786-O (Renal adenocarcinoma); test: Cell viability analysis, renal cancer 786-O; type: cell-based, human
[5] = test system: MKN-45 (Gastric Adenocarcinoma); test: Cell viability analysis, gastric cancer MKN-45; type: cell-based, human
[6] = test system: HepG2 (Hepatocellular Carcinoma); test: Cell viability analysis, hepatic cancer HepG2; type: cell-based, human
[7] = test system: BCC (basal cell carcinoma); test: Cell viability analysis, skin cancer BCC; type: cell-based, human
[8] = test system: SAS (Tongue squamous cell carcinoma); test: Cell viability analysis, tongue cancer SAS; type: cell-based, human
[9] = test system: HCT116 (p53+) (Colorectal Carcinoma)
[10] = test system: MCF7 (Mammary Gland, Adenocarcinoma); test: Cell viability analysis, breast cancer MCF7; type: cell-based, human
[11] = test system: HeLa (Cervix Adenocarcinoma); test: Cell viability analysis, cervical cancer HeLa; type: cell-based, human
U-2OS = test: Cell viability analysis, osteosarcoma U-2OS; type: cell-based, human
T24 = test: Cell viability analysis, bladder cancer T24; type: cell-based, human
[12] = test system: A549 (Lung Adenocarcinoma); test: Cell viability analysis, lung cancer A549; type: cell-based, human
[13] = test system: Hep3B (hepatocellular carcinoma); test: Cell viability analysis, hepatic cancer Hep3B; type: cell-based, human
[14] = test system: TSGH-8301 (Urinary Bladder Carcinoma); test: Cell viability analysis, bladder cancer TSGH-8301; type: cell-based, human
TOV-21G = test: Cell viability analysis, ovarian cancer TOV-21G; type: cell-based, human
[15] = test system: A375 (Amelanotic Melanoma); test: Cell viability analysis, skin cancer A375; type: cell-based, human
[16] = test system: MDA-MB-231 (Mammary Gland, Adenocarcinoma); test: Cell viability analysis, breast cancer MDA-MB-231; type: cell-based, human
AsPC-1 = test: Cell viability analysis, pancreatic cancer AsPC-1; type: cell-based, human
[17] = test system: PC3 (p53−) (Prostate Adenocarcinoma); test: Cell viability analysis, prostate cancer PC3; type: cell-based, human
[18] = test system: LoVo (Colorectal Adenocarcinoma); test: Cell viability analysis, colon cancer LoVo; type: cell-based, human

SMILES: Cc1cc(C2CCCCC2)n(O)c(=O)c1.NCCO [Ciclopirox ethanolamine]
- inhibition effect on different cancer cell lines (cancer cell lines): significant inhibition effect
- The results of antibiotic drug inhibiting cancer cell lines (cell viability analysis), BxPC-3 (BxPC-3): 47.7
- The results of antibiotic drug inhibiting cancer cell lines (cell viability analysis), C-33A [1]: 42.12
- The results of antibiotic drug inhibiting cancer cell lines (cell viability analysis), AGS [2]: 36.59
- The results of antibiotic drug inhibiting cancer cell lines (cell viability analysis), NIH-OVCAR-3 (NIH: OVCAR-3): 66.99
- The results of antibiotic drug inhibiting cancer cell lines (cell viability analysis), H1650 [3]: 53.76
- The results of antibiotic drug inhibiting cancer cell lines (cell viability analysis), 786-O [4]: 18.27
- The results of antibiotic drug inhibiting cancer cell lines (cell viability analysis), MKN-45 [5]: 72.97
- The results of antibiotic drug inhibiting cancer cell lines (cell viability analysis), HepG2 [6]: 102.4
- The results of antibiotic drug inhibiting cancer cell lines (cell viability analysis), BCC [7]: 29.08
- The results of antibiotic drug inhibiting cancer cell lines (cell viability analysis), SAS [8]: 31.98
- viability [9]: 29.5%
- The results of antibiotic drug inhibiting cancer cell lines (cell viability analysis), MCF-7 [10]: 53.67
- The results of antibiotic drug inhibiting cancer cell lines (cell viability analysis), HeLa [11]: 41.02
- The results of antibiotic drug inhibiting cancer cell lines (cell viability analysis), U2OS (U-2OS): 51.75
- The results of antibiotic drug inhibiting cancer cell lines (cell viability analysis), T24 (T24): 41.2
- The results of antibiotic drug inhibiting cancer cell lines (cell viability analysis), A549 [12]: 23.67
- The results of antibiotic drug inhibiting cancer cell lines (cell viability analysis), Hep3B [13]: 48.66
- The results of antibiotic drug inhibiting cancer cell lines (cell viability analysis), TSGH-8301 [14]: 43.63
- The results of antibiotic drug inhibiting cancer cell lines (cell viability analysis), TOV-21G (TOV-21G): 28.95
- The results of antibiotic drug inhibiting cancer cell lines (cell viability analysis), A375 [15]: 21.76
- The results of antibiotic drug inhibiting cancer cell lines (cell viability analysis), MDA-MB231 [16]: 48.29
- The results of antibiotic drug inhibiting cancer cell lines (cell viability analysis), AsPC-1 (AsPC-1): 46.57
- The results of antibiotic drug inhibiting cancer cell lines (cell viability analysis), PC-3 [17]: 54.81
- The results of antibiotic drug inhibiting cancer cell lines (cell viability analysis), LoVo [18]: 65.53
